In patent US11117947B2, “Double-acylated GLP-1 derivatives” (Novo Nordisk A/S, priority 2011, dated 2021):
Read-outs that look alike come from different tables or passages of the source. Numbered stars: 1 amine (or outer) side, 2 acyl side, 3 side chain; on linkers, the order of the positions; unused ones are H or OH. Square brackets hold non-standard residues; d marks the D form. Side chains are listed from the residue outwards. Peptide text beside a SMILES is read from it. * marks the point of attachment. Decanoyl(10-(4-HOOC-PhO)) = O=C(O)c1ccc(OCCCCCCCCCC(=O)*)cc1; d(γGlu) = O=C(O)[C@@H](CCC(=O)[*:2])N[*:1]; γGlu = O=C(O)[C@H](CCC(=O)[*:2])N[*:1]; C14 diacid = O=C(O)CCCCCCCCCCCCC(=O)*; AEEA = NCCOCCOCC(=O)O; Aib = CC(C)(N)C(=O)O

Assays:
[1] = Estimate of oral bioavailability: gut injection in rat (caprate), exposure in plasma; format: in vivo; settings: injection in jejunum, 1000 uM in 55 mg/ml sodium caprate, plasma concentration (pM) at 30 min divided by dosing solution concentration (μM), mean n=4
Procedure, shortened: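 Male Sprague Dawley rats (~240 g, n=4) received 100 μl of 1000 uM derivative in 55 mg/ml sodium caprate by catheter into proximal or mid jejunum. Tail-vein EDTA plasma was sampled up to 240 min. Peptide was quantified by two-antibody bead chemiluminescence immunoassay, giving mean concentration-time profiles (pmol/l).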

[2] = target: T1, human GLP-1 receptor (Homo sapiens, UniProt P43220); experiment: GLP-1 receptor binding: displacement of 125I-GLP-1 (SPA) at low and high albumin
T1 construct: expressed in transfected cells; membranes
Procedure, shortened: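 Membranes from hamster cells stably transfected with the receptor, with WGA SPA beads and 0.06 nM [^125I]-GLP-1(7-36)NH2, incubated 120 min at 30 °C with shaking.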

[3] = target: T1, human GLP-1 receptor; experiment: In vitro potency: stimulation of cAMP formation (AlphaScreen cAMP Assay) in membranes expressing the human GLP-1 receptor; format: biochemical; settings: membranes from BHK467-12A (tk-ts13) expressing the human GLP-1 receptor
Experimental: Purified plasma membranes from a stable transfected cell line, BHK467-12A (tk-ts13), expressing the human GLP-1 receptor were stimulated with the GLP-1 analogue or derivative in question, and the potency of cAMP production was measured using the AlphaScreen™ cAMP Assay Kit from Perkin Elmer Life Sciences. The basic principle of the AlphaScreen Assay is a competition between endogenous cAMP and exogenously added biotin-cAMP. The capture of cAMP is achieved by using a specific antibody conjugated to acceptor beads.
A stable transfected cell line and a high expressing clone were selected for screening. The cells were grown at 5% CO2 in DMEM, 5% FCS, 1% Pen/Strep (Penicillin/Streptomycin) and 0.5 mg/ml of the selection marker G418.
Cells at approximately 80% confluence were washed 2× with PBS and harvested with Versene (aqueous solution of the tetrasodium salt of ethylenediaminetetraacetic acid), centrifuged 5 min at 1000 rpm and the supernatant removed. The additional steps were all performed on ice. The cell pellet was homogenised by the Ultrathurax for 20-30 s in 10 ml of Buffer 1 (20 mM Na-HEPES, 10 mM EDTA, pH=7.4), centrifuged 15 min at 20,000 rpm and the pellet resuspended in 10 ml of Buffer 2 (20 mM Na-HEPES, 0.1 mM EDTA, pH=7.4). The suspension was homogenised for 20-30 s and centrifuged 15 min at 20,000 rpm. Suspension in Buffer 2, homogenisation and centrifugation was repeated once and the membranes were resuspended in Buffer 2. The protein concentration was determined and the membranes stored at −80° C. until use.
The final volume per well was 50 μl.
AlphaScreen cAMP Assay Kit from Perkin Elmer Life Sciences (cat. No: 6760625M); containing Anti-cAMP Acceptor beads (10 U/μl), Streptavidin Donor beads (10 U/μl) and Biotinylated-cAMP (133 U/μl).
cAMP standard (dilution factor in assay=5): cAMP Solution: 5 μL of a 5 mM cAMP-stock+495 μL AlphaScreen Buffer.
Membranes were prepared from hGLP-1/BHK 467-12A cells with a concentration of 6 μg/well corresponding to 0.6 mg/ml (the amount of membranes used pr. well may vary)
“No membranes”: Acceptor Beads (15 μg/ml final) in AlphaScreen buffer
“6 μg/well membranes”: membranes+Acceptor Beads (15 μg/ml final) in AlphaScreen buffer
An aliquot (10 μl) of “No membranes” was added to the cAMP standard (per well in duplicate wells) and the positive and negative controls
An aliquot (10 μl) of “6 μg/well membranes” was added to GLP-1 and analogues (per well in duplicate or triplicate wells)
Pos. Control: 10 μl “no membranes”+10 μl AlphaScreen Buffer
Neg. Control: 10 μl “no membranes”+10 μl cAMP Stock Solution (50 μM)
1. Make the AlphaScreen Buffer.
2. Dissolve and dilute the GLP-1/Analogues/cAMP standard in AlphaScreen Buffer.
4. Add the cAMP/GLP-1/Analogues to the plate: 10 μl per well.
5. Prepare membrane/Acceptor Beads solution and add this to the plates: 10 μl per well.
6. Add the Donor Beads: 30 μl per well.

[4] = low albumin, 0.001% HSA, read-out: IC50/nM (low HSA)

T1 sequence (P43220 24-463): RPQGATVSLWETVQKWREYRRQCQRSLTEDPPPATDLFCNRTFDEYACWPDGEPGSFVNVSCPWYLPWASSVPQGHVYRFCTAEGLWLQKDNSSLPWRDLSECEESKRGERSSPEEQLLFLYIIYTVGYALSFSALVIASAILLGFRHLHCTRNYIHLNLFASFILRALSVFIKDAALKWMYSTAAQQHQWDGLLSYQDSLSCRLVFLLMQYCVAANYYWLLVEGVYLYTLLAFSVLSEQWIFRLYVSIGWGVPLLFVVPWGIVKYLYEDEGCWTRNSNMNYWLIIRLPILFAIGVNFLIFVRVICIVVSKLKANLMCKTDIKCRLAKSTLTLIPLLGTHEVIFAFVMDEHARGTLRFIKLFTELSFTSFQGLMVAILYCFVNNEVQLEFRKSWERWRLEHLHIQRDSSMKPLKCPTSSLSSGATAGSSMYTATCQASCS

Row | SMILES | Dose-corrected exposure at 30 min [1] | IC50 [2, 4] [nM] | EC50 [3] [nM] | Ratio [(IC50/nM) high HSA]/[(IC50/nM) low HSA] ([2]; 2.0% HSA vs 0.001% HSA) | IC50 ([2]; high albumin, 2.0% HSA, read-out: IC50/nM (high HSA)) [nM]
1 | CC[C@H](C)[C@H](NC(=O)[C@H](Cc1ccccc1)NC(=O)[C@H](CCCCNC(=O)CC[C@H](NC(=O)COCCOCCNC(=O)COCCOCCNC(=O)CCCCCCCCCCCCC(=O)O)C(=O)O)NC(=O)[C@H](CCCNC(=N)N)NC(=O)[C@@H](NC(=O)[C@H](C)NC(=O)[C@H](CCC(N)=O)NC(=O)[C@H](CCCCNC(=O)CC[C@H](NC(=O)COCCOCCNC(=O)COCCOCCNC(=O)CCCCCCCCCCCCC(=O)O)C(=O)O)NC(=O)[C@H](CCC(=O)O)NC(=O)[C@H](CC(C)C)NC(=O)[C@H](Cc1ccc(O)cc1)NC(=O)[C@H](CO)NC(=O)[C@H](CO)NC(=O)[C@@H](NC(=O)[C@H](CC(=O)O)NC(=O)[C@H](CO)NC(=O)[C@@H](NC(=O)[C@H](Cc1ccccc1)NC(=O)[C@@H](NC(=O)CNC(=O)[C@H](CCC(=O)O)NC(=O)[C@H](C)NC(=O)[C@@H](N)Cc1c[nH]cn1)[C@@H](C)O)[C@@H](C)O)C(C)C)C(C)C)C(=O)N[C@@H](CCC(=O)O)C(=O)N[C@@H](Cc1c[nH]c2ccccc12)C(=O)N[C@@H](CC(C)C)C(=O)N[C@H](C(=O)N[C@@H](CCC(N)=O)C(=O)NCC(=O)N[C@@H](CCCNC(=N)N)C(=O)NCC(=O)O)C(C)C [Example 20, N^ε22-[(4S)-4-carboxy-4-[[2-[2-[2-[[2-[2-[2-(13-carboxytridecanoylamino)ethoxy]ethoxy]acetyl]amino]ethoxy]ethoxy]acetyl]amino]butanoyl], N^ε27-[(4S)-4-carboxy-4-[[2-[2-[2-[[2-[2-[2-(13-carboxytridecanoylamino)ethoxy]ethoxy]acetyl]amino]ethoxy]ethoxy]acetyl]amino]butanoyl]-_[Lys^22,Val^25TArg^26,Lys^27,Glu^30,Gln^34]-GLP-1-(7-37)-peptide] (H-HAEGTFTSDVSSYLEK([γGlu-AEEA-AEEA-C14 diacid])QAVRK([γGlu-AEEA-AEEA-C14 diacid])FIEWLVQGRG-OH; N-terminus and C-terminus assumed) | 123 | 0.19 |  |  | 
2 | CC[C@H](C)[C@H](NC(=O)[C@H](Cc1ccccc1)NC(=O)[C@H](CCCCNC(=O)COCCOCCNC(=O)COCCOCCNC(=O)CC[C@H](NC(=O)CCCCCCCCCOc1ccc(C(=O)O)cc1)C(=O)O)NC(=O)[C@H](CCCNC(=N)N)NC(=O)[C@H](C)NC(=O)[C@H](CCCCNC(=O)COCCOCCNC(=O)COCCOCCNC(=O)CC[C@H](NC(=O)CCCCCCCCCOc1ccc(C(=O)O)cc1)C(=O)O)NC(=O)[C@H](CCC(N)=O)NC(=O)[C@H](CCC(=O)O)NC(=O)[C@H](CCC(=O)O)NC(=O)[C@H](CC(C)C)NC(=O)[C@H](Cc1ccc(O)cc1)NC(=O)[C@H](CO)NC(=O)[C@H](CO)NC(=O)[C@@H](NC(=O)[C@H](CC(=O)O)NC(=O)[C@H](CO)NC(=O)[C@@H](NC(=O)[C@H](Cc1ccccc1)NC(=O)[C@@H](NC(=O)CNC(=O)[C@H](CCC(=O)O)NC(=O)[C@H](C)NC(=O)[C@@H](N)Cc1c[nH]cn1)[C@@H](C)O)[C@@H](C)O)C(C)C)C(=O)N[C@@H](C)C(=O)N[C@@H](Cc1c[nH]cn1)C(=O)N[C@@H](CC(C)C)C(=O)N[C@H](C(=O)NCC(=O)O)C(C)C [Example 25, N^ε24-[2-[2-[2-[[2-[2-[2-[[(4S)-4-carboxy-4-[10-(4-carboxyphenoxy)decanoylamino]butanoyl]amino]ethoxy]ethoxy]acetyl]amino]ethoxy]ethoxy]acetyl], N^ε27-[2-[2-[2-[[2-[2-[2-[[(4S)-4-carboxy-4-[10-(4-carboxyphenoxy)decanoylamino]butanoyl]amino]ethoxy]ethoxy]acetyl]amino]ethoxy]ethoxy]acetyl]-[Glu^22,Lys^24,Arg^26,Lys^27,His^31,Gly^34]-GLP-1-(7-34)-peptide] (H-HAEGTFTSDVSSYLEEQK([AEEA-AEEA-γGlu-Decanoyl(10-(4-HOOC-PhO))])ARK([AEEA-AEEA-γGlu-Decanoyl(10-(4-HOOC-PhO))])FIAHLVG-OH; N-terminus and C-terminus assumed) |  |  | 0.38 |  | 
3 | CC[C@H](C)[C@H](NC(=O)[C@H](Cc1ccccc1)NC(=O)[C@H](CCCCNC(=O)CC[C@H](NC(=O)COCCOCCNC(=O)COCCOCCNC(=O)CC[C@@H](NC(=O)CCCCCCCCCOc1ccc(C(=O)O)cc1)C(=O)O)C(=O)O)NC(=O)[C@H](CCCNC(=N)N)NC(=O)[C@@H](NC(=O)[C@H](C)NC(=O)[C@H](CCC(N)=O)NC(=O)CNC(=O)[C@H](CCC(=O)O)NC(=O)[C@H](CC(C)C)NC(=O)[C@H](Cc1ccc(O)cc1)NC(=O)[C@H](CO)NC(=O)[C@H](CO)NC(=O)[C@@H](NC(=O)[C@H](CC(=O)O)NC(=O)[C@H](CO)NC(=O)[C@@H](NC(=O)[C@H](Cc1ccccc1)NC(=O)[C@@H](NC(=O)CNC(=O)[C@H](CCC(=O)O)NC(=O)[C@H](C)NC(=O)[C@@H](N)Cc1c[nH]cn1)[C@@H](C)O)[C@@H](C)O)C(C)C)C(C)C)C(=O)N[C@@H](C)C(=O)N[C@@H](Cc1c[nH]c2ccccc12)C(=O)N[C@@H](CC(C)C)C(=O)N[C@H](C(=O)N[C@@H](CCC(N)=O)C(=O)NCC(=O)N[C@@H](CCCCNC(=O)CC[C@H](NC(=O)COCCOCCNC(=O)COCCOCCNC(=O)CC[C@@H](NC(=O)CCCCCCCCCOc1ccc(C(=O)O)cc1)C(=O)O)C(=O)O)C(=O)NCC(=O)O)C(C)C [Example 26] (H-HAEGTFTSDVSSYLEGQAVRK([γGlu-AEEA-AEEA-d(γGlu)-Decanoyl(10-(4-HOOC-PhO))])FIAWLVQGK([γGlu-AEEA-AEEA-d(γGlu)-Decanoyl(10-(4-HOOC-PhO))])G-OH; N-terminus and C-terminus assumed) |  | 0.38 | 0.2 |  | 
4 | CC[C@H](C)[C@H](NC(=O)[C@H](Cc1ccccc1)NC(=O)[C@H](CCCCNC(=O)COCCOCCNC(=O)COCCOCCNC(=O)CC[C@H](NC(=O)CCCCCCCCCCCCC(=O)O)C(=O)O)NC(=O)[C@H](CCCNC(=N)N)NC(=O)[C@@H](NC(=O)[C@H](CCCCNC(=O)COCCOCCNC(=O)COCCOCCNC(=O)CC[C@H](NC(=O)CCCCCCCCCCCCC(=O)O)C(=O)O)NC(=O)[C@H](CCC(N)=O)NC(=O)[C@H](CCC(=O)O)NC(=O)[C@H](CCC(=O)O)NC(=O)[C@H](CC(C)C)NC(=O)[C@H](Cc1ccc(O)cc1)NC(=O)[C@H](CO)NC(=O)[C@H](CO)NC(=O)[C@@H](NC(=O)[C@H](CC(=O)O)NC(=O)[C@H](CO)NC(=O)[C@@H](NC(=O)[C@H](Cc1ccccc1)NC(=O)[C@@H](NC(=O)CNC(=O)[C@H](CCC(=O)O)NC(=O)C(C)(C)NC(=O)[C@@H](N)Cc1c[nH]cn1)[C@@H](C)O)[C@@H](C)O)C(C)C)C(C)C)C(=O)N[C@@H](C)C(=O)N[C@@H](Cc1c[nH]cn1)C(=O)N[C@@H](CC(C)C)C(=O)N[C@H](C(=O)N[C@@H](CCC(N)=O)C(=O)NCC(=O)N[C@@H](CCCNC(=N)N)C(=O)NCC(=O)O)C(C)C [Example 29, N^ε24-[2-[2-[2-[[2-[2-[2-[[(4S)-4-carboxy-4-(13-carboxytridecanoylamino)butanoyl]amino]ethoxy]ethoxy]acetyl]amino]ethoxy]ethoxy]acetyl], N^ε27-[2-[2-[2-[[2-[2-[2-[[(4S)-4-carboxy-4-(13-carboxytridecanoylamino)butanoyl]amino]ethoxy]ethoxy]acetyl]amino]ethoxy]ethoxy]acetyl]-[Aib^8,Glu^22,Lys^24,Val^25,Arg^26,Lys^27,His^31,Gln^34]-GLP-1-(7-37)-peptide] (H-H[Aib]EGTFTSDVSSYLEEQK([AEEA-AEEA-γGlu-C14 diacid])VRK([AEEA-AEEA-γGlu-C14 diacid])FIAHLVQGRG-OH) |  | 3.95 | 0.04 | 92 | 363
